Test results taken from paper PMC5784128, “Glucansucrase (mutant) enzymes from Lactobacillus reuteri 180 efficiently transglucosylate Stevia component rebaudioside A, resulting in a superior taste” (Scientific Reports, 2018).

Target: T1, Gtf180-ΔN (Limosilactobacillus reuteri, UniProt Q5SBN3, Q1140E)
T1 construct: N-terminally truncated fragment (first 741 residues removed), 117 kDa; start 742 derived from the printed truncation
Assay: HPLC time course of transglucosylation
Assay type: biochemical
Conditions: acceptor substrate; 84 mM RebA, 282 mM sucrose donor, 5 U/mL enzyme, 1 mM CaCl2, pH 4.7, 37 °C

T1 sequence (Q5SBN3 entry or part of it Q1140E): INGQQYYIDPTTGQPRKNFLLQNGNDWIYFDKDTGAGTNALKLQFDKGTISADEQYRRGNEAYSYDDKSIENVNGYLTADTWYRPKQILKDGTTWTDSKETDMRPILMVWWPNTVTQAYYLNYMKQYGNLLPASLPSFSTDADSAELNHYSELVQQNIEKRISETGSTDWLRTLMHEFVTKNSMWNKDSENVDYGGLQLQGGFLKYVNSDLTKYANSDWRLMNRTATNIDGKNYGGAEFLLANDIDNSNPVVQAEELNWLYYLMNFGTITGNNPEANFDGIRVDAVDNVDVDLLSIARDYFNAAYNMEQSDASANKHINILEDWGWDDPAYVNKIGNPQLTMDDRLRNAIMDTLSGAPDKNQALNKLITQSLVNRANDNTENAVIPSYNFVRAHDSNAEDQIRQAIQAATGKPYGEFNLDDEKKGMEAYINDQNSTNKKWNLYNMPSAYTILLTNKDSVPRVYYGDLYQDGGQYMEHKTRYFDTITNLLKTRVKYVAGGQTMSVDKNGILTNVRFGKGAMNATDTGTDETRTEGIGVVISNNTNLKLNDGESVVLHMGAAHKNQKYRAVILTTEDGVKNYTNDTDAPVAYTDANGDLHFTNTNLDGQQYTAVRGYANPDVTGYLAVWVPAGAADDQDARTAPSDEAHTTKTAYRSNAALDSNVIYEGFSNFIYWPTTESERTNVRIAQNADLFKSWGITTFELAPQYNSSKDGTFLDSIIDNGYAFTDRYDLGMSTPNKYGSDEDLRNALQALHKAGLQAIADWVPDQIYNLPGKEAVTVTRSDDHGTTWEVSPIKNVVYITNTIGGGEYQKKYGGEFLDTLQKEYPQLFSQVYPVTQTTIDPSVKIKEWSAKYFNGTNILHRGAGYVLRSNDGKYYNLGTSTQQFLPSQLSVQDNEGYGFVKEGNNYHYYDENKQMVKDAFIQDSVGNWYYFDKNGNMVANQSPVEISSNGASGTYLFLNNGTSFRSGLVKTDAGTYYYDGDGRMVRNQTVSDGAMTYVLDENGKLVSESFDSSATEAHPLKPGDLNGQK

SMILES: C=C1C[C@@]23CC[C@H]4[C@@](C)(CCC[C@@]4(C)C(=O)O[C@@H]4O[C@H](CO)[C@@H](O)[C@H](O)[C@H]4O)[C@@H]2CC[C@]1(O[C@@H]1O[C@H](CO)[C@@H](O)[C@H](O[C@@H]2O[C@H](CO)[C@@H](O)[C@H](O)[C@H]2O)[C@H]1O[C@@H]1O[C@H](CO)[C@@H](O)[C@H](O)[C@H]1O)C3 [rebaudioside A]
- HPLC time course of transglucosylation: the Q1140E-mutant not only converted more RebA into RebA-G than wild-type Gtf180-ΔN
